According to ChEMBL document CHEMBL1201862, “PubChem BioAssay data set” (2004):
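Results reflect a 48-hour exposure of cells in 96-well plates to compound at five concentrations. Abbreviation: GI50, concentration required for 50% inhibition of growth.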 Active and inactive are the calls of the source. Rule as the data show it: active = GI50 up to about 1.1 µM and inactive = higher.

How the values were obtained:
Test in all cases: NCI-60 cell line screen, 48 h
TK-10 = tested on: TK-10
COLO 205 = tested on: COLO 205
PC-3 = tested on: PC-3
A498 = tested on: A498
SN12C = tested on: SN12C
HL-60 = tested on: HL-60
RXF 393 = tested on: RXF 393
SF-268 = tested on: SF-268
SR = tested on: SR
HOP-62 = tested on: HOP-62
786-0 = tested on: 786-0
SK-OV-3 = tested on: SK-OV-3
NCI-H23 = tested on: NCI-H23
SK-MEL-5 = tested on: SK-MEL-5
HOP-92 = tested on: HOP-92
OVCAR-8 = tested on: OVCAR-8
DU-145 = tested on: DU-145
UACC-62 = tested on: UACC-62
CAKI-1 = tested on: CAKI-1
CCRF-CEM = tested on: CCRF-CEM
MOLT-4 = tested on: MOLT-4
SNB-75 = tested on: SNB-75
SW-620 = tested on: SW-620
SF-539 = tested on: SF-539
MDA-MB-435 = tested on: MDA-MB-435
K562 = tested on: K562
SNB-19 = tested on: SNB-19
BT-549 = tested on: BT-549
KM12 = tested on: KM12
OVCAR-4 = tested on: OVCAR-4
UO-31 = tested on: UO-31
RPMI-8226 = tested on: RPMI-8226
U-251 = tested on: U-251
LOX IMVI = tested on: LOX IMVI
Hs-578T = tested on: Hs-578T
ACHN = tested on: ACHN
NCI-H460 = tested on: NCI-H460
MDA-MB-231 = tested on: MDA-MB-231
OVCAR-3 = tested on: OVCAR-3
HCT-15 = tested on: HCT-15
Malme-3M = tested on: Malme-3M
NCI/ADR-RES = tested on: NCI/ADR-RES
MDA-N = tested on: MDA-N
SK-MEL-2 = tested on: SK-MEL-2
HT-29 = tested on: HT-29
MCF7 = tested on: MCF7
T47D = tested on: T47D
OVCAR-5 = tested on: OVCAR-5
UACC-257 = tested on: UACC-257
SK-MEL-28 = tested on: SK-MEL-28
M14 = tested on: M14
SF-295 = tested on: SF-295
A549 = tested on: A549
NCI-H226 = tested on: NCI-H226
HCT-116 = tested on: HCT-116
NCI-H522 = tested on: NCI-H522
EKVX = tested on: EKVX
HCC 2998 = tested on: HCC 2998
IGROV-1 = tested on: IGROV-1

CC(C)(C(=O)N(C(=O)N1CCN(c2ccccc2)CC1)S(=O)(=O)c1ccccc1)c1ccc(Cl)cc1
GI50 (TK-10): 61.4 µM (inactive)
GI50 (COLO 205): 20.7 µM (inactive)
GI50 (PC-3): 12.6 µM (inactive)
GI50 (A498): 18.6 µM (inactive)
GI50 (SN12C): 52.4 µM (inactive)
GI50 (HL-60): 24.8 µM (inactive)
GI50 (RXF 393): > 100 µM (inactive)
GI50 (SF-268): 34.4 µM (inactive)
GI50 (SR): 22.8 µM (inactive)
GI50 (HOP-62): 27.5 µM (inactive)
GI50 (786-0): 55.2 µM (inactive)
GI50 (SK-OV-3): 24 µM (inactive)
GI50 (NCI-H23): 16.3 µM (inactive)
GI50 (SK-MEL-5): 35.7 µM (inactive)
GI50 (HOP-92): 5.43 µM (inactive)
GI50 (OVCAR-8): 16.6 µM (inactive)
GI50 (DU-145): 58.5 µM (inactive)
GI50 (UACC-62): 40.6 µM (inactive)
GI50 (CAKI-1): 34.4 µM (inactive)
GI50 (CCRF-CEM): 3.94 µM (inactive)
GI50 (MOLT-4): 3.33 µM (inactive)
GI50 (SNB-75): 77.1 µM (inactive)
GI50 (SW-620): 7.03 µM (inactive)
GI50 (SF-539): 61.8 µM (inactive)
GI50 (MDA-MB-435): 51.2 µM (inactive)
GI50 (K562): 5.68 µM (inactive)
GI50 (SNB-19): 20.5 µM (inactive)
GI50 (BT-549): 30.7 µM (inactive)
GI50 (KM12): 19.3 µM (inactive)
GI50 (OVCAR-4): 28.1 µM (inactive)
GI50 (UO-31): 15.3 µM (inactive)
GI50 (RPMI-8226): 6.95 µM (inactive)
GI50 (U-251): 6.32 µM (inactive)
GI50 (LOX IMVI): 46.8 µM (inactive)
GI50 (Hs-578T): 39.1 µM (inactive)
GI50 (ACHN): 19.5 µM (inactive)
GI50 (NCI-H460): 28.8 µM (inactive)
GI50 (MDA-MB-231): 31.7 µM (inactive)
GI50 (OVCAR-3): 18.7 µM (inactive)
GI50 (HCT-15): 7.94 µM
GI50 (Malme-3M): 90.4 µM (inactive)
GI50 (NCI/ADR-RES): 6.92 µM (inactive)
GI50 (MDA-N): 41.5 µM (inactive)
GI50 (SK-MEL-2): 21.3 µM (inactive)
GI50 (HT-29): 21.4 µM (inactive)
GI50 (MCF7): 4.33 µM (inactive)
GI50 (T47D): 29.2 µM (inactive)
GI50 (OVCAR-5): 42.2 µM (inactive)
GI50 (UACC-257): 46.7 µM (inactive)
GI50 (SK-MEL-28): > 100 µM (inactive)
GI50 (M14): 31.3 µM (inactive)
GI50 (SF-295): 8.63 µM (inactive)
GI50 (A549): 33.7 µM (inactive)
GI50 (NCI-H226): 52.4 µM (inactive)
GI50 (HCT-116): 17.7 µM (inactive)
GI50 (NCI-H522): 4.32 µM (inactive)
GI50 (EKVX): 13.5 µM (inactive)
GI50 (HCC 2998): 27.7 µM (inactive)

O=C1c2ccccc2S(=O)(=O)c2cc(-c3nn[nH]n3)ccc21 [DOXANTRAZOLE]
GI50 (TK-10): > 100 µM (inactive)
GI50 (COLO 205): > 100 µM (inactive)
GI50 (PC-3): > 100 µM (inactive)
GI50 (A498): > 100 µM (inactive)
GI50 (SN12C): > 100 µM (inactive)
GI50 (HL-60): > 100 µM (inactive)
GI50 (RXF 393): > 100 µM (inactive)
GI50 (SF-268): > 100 µM (inactive)
GI50 (SR): > 100 µM (inactive)
GI50 (IGROV-1): > 95.3 µM (inactive)
GI50 (HOP-62): > 100 µM (inactive)
GI50 (786-0): > 100 µM (inactive)
GI50 (SK-OV-3): > 100 µM (inactive)
GI50 (NCI-H23): > 100 µM (inactive)
GI50 (SK-MEL-5): > 100 µM (inactive)
GI50 (HOP-92): > 100 µM (inactive)
GI50 (OVCAR-8): > 100 µM (inactive)
GI50 (DU-145): > 100 µM (inactive)
GI50 (UACC-62): > 100 µM (inactive)
GI50 (CAKI-1): > 87.3 µM (inactive)
GI50 (CCRF-CEM): > 100 µM (inactive)
GI50 (MOLT-4): > 100 µM (inactive)
GI50 (SNB-75): > 100 µM (inactive)
GI50 (SW-620): > 100 µM (inactive)
GI50 (SF-539): > 100 µM (inactive)
GI50 (MDA-MB-435): > 100 µM (inactive)
GI50 (K562): > 100 µM (inactive)
GI50 (SNB-19): > 100 µM (inactive)
GI50 (BT-549): > 100 µM (inactive)
GI50 (KM12): > 100 µM (inactive)
GI50 (OVCAR-4): > 100 µM (inactive)
GI50 (UO-31): > 100 µM (inactive)
GI50 (U-251): > 100 µM (inactive)
GI50 (LOX IMVI): > 100 µM (inactive)
GI50 (Hs-578T): > 100 µM (inactive)
GI50 (ACHN): > 100 µM (inactive)
GI50 (NCI-H460): > 100 µM (inactive)
GI50 (MDA-MB-231): > 100 µM (inactive)
GI50 (OVCAR-3): > 100 µM (inactive)
GI50 (HCT-15): > 100 µM
GI50 (Malme-3M): > 100 µM (inactive)
GI50 (NCI/ADR-RES): > 100 µM (inactive)
GI50 (MDA-N): > 100 µM (inactive)
GI50 (SK-MEL-2): > 100 µM (inactive)
GI50 (HT-29): > 100 µM (inactive)
GI50 (MCF7): > 100 µM (inactive)
GI50 (T47D): > 76.4 µM (inactive)
GI50 (OVCAR-5): > 100 µM (inactive)
GI50 (UACC-257): > 100 µM (inactive)
GI50 (SK-MEL-28): > 100 µM (inactive)
GI50 (M14): > 100 µM (inactive)
GI50 (SF-295): > 100 µM (inactive)
GI50 (A549): > 100 µM (inactive)
GI50 (NCI-H226): > 100 µM (inactive)
GI50 (HCT-116): > 100 µM (inactive)
GI50 (NCI-H522): > 100 µM (inactive)
GI50 (EKVX): > 100 µM (inactive)
GI50 (HCC 2998): > 100 µM (inactive)

CCOC(=O)NC(Nc1c(F)c(F)c(F)c(F)c1F)(C(F)(F)F)C(F)(F)F
GI50 (TK-10): > 100 µM (inactive)
GI50 (COLO 205): > 100 µM (inactive)
GI50 (PC-3): > 100 µM (inactive)
GI50 (A498): > 100 µM (inactive)
GI50 (SN12C): > 100 µM (inactive)
GI50 (HL-60): > 100 µM (inactive)
GI50 (RXF 393): > 100 µM (inactive)
GI50 (SF-268): > 100 µM (inactive)
GI50 (SR): > 100 µM (inactive)
GI50 (IGROV-1): > 100 µM (inactive)
GI50 (HOP-62): > 100 µM (inactive)
GI50 (786-0): > 100 µM (inactive)
GI50 (SK-OV-3): > 100 µM (inactive)
GI50 (NCI-H23): > 100 µM (inactive)
GI50 (SK-MEL-5): > 100 µM (inactive)
GI50 (HOP-92): > 100 µM (inactive)
GI50 (OVCAR-8): > 100 µM (inactive)
GI50 (DU-145): > 100 µM (inactive)
GI50 (UACC-62): > 100 µM (inactive)
GI50 (CAKI-1): > 100 µM (inactive)
GI50 (CCRF-CEM): > 100 µM (inactive)
GI50 (MOLT-4): > 100 µM (inactive)
GI50 (SNB-75): > 100 µM (inactive)
GI50 (SW-620): > 100 µM (inactive)
GI50 (SF-539): > 100 µM (inactive)
GI50 (MDA-MB-435): > 100 µM (inactive)
GI50 (K562): > 100 µM (inactive)
GI50 (SNB-19): > 100 µM (inactive)
GI50 (BT-549): > 100 µM (inactive)
GI50 (KM12): > 100 µM (inactive)
GI50 (UO-31): > 100 µM (inactive)
GI50 (RPMI-8226): > 100 µM (inactive)
GI50 (U-251): > 100 µM (inactive)
GI50 (LOX IMVI): > 100 µM (inactive)
GI50 (Hs-578T): > 100 µM (inactive)
GI50 (ACHN): > 100 µM (inactive)
GI50 (NCI-H460): > 100 µM (inactive)
GI50 (MDA-MB-231): > 100 µM (inactive)
GI50 (OVCAR-3): > 100 µM (inactive)
GI50 (HCT-15): > 100 µM
GI50 (Malme-3M): > 100 µM (inactive)
GI50 (NCI/ADR-RES): > 100 µM (inactive)
GI50 (MDA-N): > 100 µM (inactive)
GI50 (SK-MEL-2): > 100 µM (inactive)
GI50 (MCF7): > 100 µM (inactive)
GI50 (T47D): > 100 µM (inactive)
GI50 (OVCAR-5): > 100 µM (inactive)
GI50 (UACC-257): > 100 µM (inactive)
GI50 (SK-MEL-28): > 100 µM (inactive)
GI50 (M14): > 100 µM (inactive)
GI50 (SF-295): > 100 µM (inactive)
GI50 (A549): > 100 µM (inactive)
GI50 (NCI-H226): > 100 µM (inactive)
GI50 (HCT-116): > 100 µM (inactive)
GI50 (NCI-H522): > 100 µM (inactive)
GI50 (EKVX): > 100 µM (inactive)
GI50 (HCC 2998): > 100 µM (inactive)
